Experimental data as given in US8008299B2, “Urotensin II receptor antagonists” (Janssen Pharmaceutica, N.V., priority 2007, dated 2011).
Read-outs that look alike come from different tables or passages of the source.

Tests used:
[1] = target: T1, rat GPR14 (U-II receptor) (Rattus norvegicus, UniProt P49684); assay: Rat UII Calcium Mobilization FLIPR Assay; assay type: cell-based; conditions: CHO cells transfected with rat GPR14; antagonist activity after 5 min incubation vs agonist (Ac)-CFWK(2-NaI)C-NH2 at 1 nM
T1 construct: expressed in transfected cells
T1 sequence (P49684 1-386): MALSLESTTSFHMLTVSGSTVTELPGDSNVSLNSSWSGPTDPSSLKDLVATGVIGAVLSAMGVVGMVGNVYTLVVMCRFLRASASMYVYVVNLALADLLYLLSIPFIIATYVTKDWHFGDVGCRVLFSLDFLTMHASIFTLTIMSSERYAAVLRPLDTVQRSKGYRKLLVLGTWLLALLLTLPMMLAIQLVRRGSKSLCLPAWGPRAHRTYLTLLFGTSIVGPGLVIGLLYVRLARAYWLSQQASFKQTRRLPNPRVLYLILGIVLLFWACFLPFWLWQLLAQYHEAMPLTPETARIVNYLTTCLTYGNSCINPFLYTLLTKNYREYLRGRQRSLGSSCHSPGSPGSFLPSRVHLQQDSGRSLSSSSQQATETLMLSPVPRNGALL
Summary of the method: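 CHO cells stably expressing rat U-II receptor, seeded 24 h before assay, were loaded with FLIPR calcium dye in HBSS/20 mM HEPES/0.1% BSA/2.5 mM probenecid, pH 7.4, for 1 h at 37° C. Calcium mobilization then read by FLIPR at 23° C.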

[2] = target: T2, Human UII (U-II receptor) in 6D9 human rhabdomyosarcoma cells (Homo sapiens, UniProt Q9UKP6); assay: Human UII Calcium Mobilization Assay; assay type: cell-based
T2 construct: 6D9: isolated by dilution subcloning of RMS13 cells, ATCC® Number: CRL-2061; host or cells: 6D9 human rhabdomyosarcoma cells (subclone of RMS13)
T2 sequence (Q9UKP6 1-389): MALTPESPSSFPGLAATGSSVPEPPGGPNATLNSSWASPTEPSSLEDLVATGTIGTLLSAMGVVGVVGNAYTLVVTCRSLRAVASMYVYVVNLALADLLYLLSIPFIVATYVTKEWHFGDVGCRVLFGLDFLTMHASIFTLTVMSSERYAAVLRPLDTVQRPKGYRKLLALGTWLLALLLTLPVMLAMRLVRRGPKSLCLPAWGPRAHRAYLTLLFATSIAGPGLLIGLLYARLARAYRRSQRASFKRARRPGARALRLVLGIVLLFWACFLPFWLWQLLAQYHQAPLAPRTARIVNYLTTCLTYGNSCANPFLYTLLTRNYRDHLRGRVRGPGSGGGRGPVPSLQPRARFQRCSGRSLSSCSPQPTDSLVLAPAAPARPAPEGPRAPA

[3] = target: T3, UT receptors in HSMM (Human Skeletal Muscle Myoblasts) (Homo sapiens, UniProt Q9UKP6); assay: Human Radioligand Binding Assay ((^125I)-U-II binding to intact HSMM)
T3 sequence (Q9UKP6 1-389): T2 sequence (Q9UKP6 1-389)

[4] = 6D9 human rhabdomyosarcoma cells, FLIPR TETRA, average, read-out: Human UII Ca+ Mobilization Average IC50
[5] = read-out: Human UII Average Binding Ki, intact HSMM, 0.150 nM (^125I)-U-II, 3 h, 25° C.

Structure (SMILES) | IC50 [1] [nM] | Ki [3] [nM] | IC50 [2, 4] [nM] | IC50 [2] [nM] | Ki [3, 5] [nM]
COc1ccc([C@@H](CCCNC(=O)c2cnoc2C)N2Cc3c(cccc3N3CCN(C(C)c4ccccc4)CC3)C2=O)cc1OC (stereo partly drawn) [Cpd 85, 5-methyl-isoxazole-4-carboxylic acid ((4R)-4-(3,4-dimethoxy-phenyl)-4-{1-oxo-4-[4-(1-phenyl-ethyl)-piperazin-1-yl]-1,3-dihydro-isoindol-2-yl}-butyl)-amide] | 6 | 15 | – | 325 | –
COc1ccc([C@@H](CCCN(C)S(=O)(=O)c2cccs2)N2Cc3c(cccc3N3CCNCC3)C2=O)cc1OC [Cpd 30, thiophene-2-sulfonic acid [(4R)-4-(3,4-dimethoxy-phenyl)-4-(1-oxo-4-piperazin-1-yl-1,3-dihydro-isoindol-2-yl)-butyl]-methyl-amide] | 39 | – | 409 | – | 49
CCN1CCN(c2cccc3c2CN([C@H](CCCOCc2ccccc2Cl)c2ccc(OC)c(OC)c2)C3=O)CC1 [Cpd 47, 2-[(1R)-4-(2-chloro-benzyloxy)-1-(3,4-dimethoxy-phenyl)-butyl]-4-(4-ethyl-piperazin-1-yl)-2,3-dihydro-isoindol-1-one] | 1300 | > 300 | 6140 | – | –
CCN1CCN(c2cccc3c2CN([C@H](CCCNC(=O)c2cccs2)c2ccc(OC)c(OC)c2)C3=O)CC1 [Cpd 81, thiophene-2-carboxylic acid {(4R)-4-(3,4-dimethoxy-phenyl)-4-[4-(4-ethyl-piperazin-1-yl)-1-oxo-1,3-dihydro-isoindol-2-yl]-butyl}-amide] | 7 | – | – | 137 | 18
CCN1CCN(c2cccc3c2CN([C@H](CCCNc2ccccc2)c2ccc(OC)c(OC)c2)C3=O)CC1 [Cpd 40, 2-[(1R)-1-(3,4-dimethoxy-phenyl)-4-phenylamino-butyl]-4-(4-ethyl-piperazin-1-yl)-2,3-dihydro-isoindol-1-one] | 10 | 75 | 370 | – | –
COc1ccc([C@@H](CCCn2ccnc2)N2Cc3c(cccc3N3CCNCC3)C2=O)cc1OC [Cpd 35, 2-[(1R)-1-(3,4-dimethoxy-phenyl)-4-imidazol-1-yl-butyl]-4-piperazin-1-yl-2,3-dihydro-isoindol-1-one] | 1900 | 1100 | > 10000 | – | –
CCN1CCN(c2cccc3c2CN([C@H](CCCN(Cc2ccncc2)Cc2ccncc2)c2ccc(OC)c(OC)c2)C3=O)CC1 [Cpd 63, 2-[(1R)-4-(bis-pyridin-4-ylmethyl-amino)-1-(3,4-dimethoxy-phenyl)-butyl]-4-(4-ethyl-piperazin-1-yl)-2,3-dihydro-isoindol-1-one] | 7 | 8 | 20 | – | –
CCN1CCN(c2cccc3c2CN([C@H](CCCNc2nccc(Cl)n2)c2ccc(OC)c(OC)c2)C3=O)CC1 [Cpd 11, 2-[(1R)-4-(4-chloro-pyrimidin-2-ylamino)-1-(3,4-dimethoxy-phenyl)-butyl]-4-(4-ethyl-piperazin-1-yl)-2,3-dihydro-isoindol-1-one] | 1 | 62 | 496 | – | –
COc1ccc([C@@H](CCCNS(=O)(=O)c2cccs2)N2Cc3c(cccc3N3CCN(C(C)C)CC3)C2=O)cc1OC [Cpd 65, thiophene-2-sulfonic acid {(4R)-4-(3,4-dimethoxy-phenyl)-4-[4-(4-isopropyl-piperazin-1-yl)-1-oxo-1,3-dihydro-isoindol-2-yl]-butyl}-amide] | 3 | – | 53 | – | 4
COc1ccc([C@@H](CCCNc2nccc(C(F)(F)F)n2)N2Cc3c(cccc3N3CCNCC3)C2=O)cc1OC [Cpd 6, 2-[(1R)-1-(3,4-dimethoxy-phenyl)-4-(4-trifluoromethyl-pyrimidin-2-ylamino)-butyl]-4-piperazin-1-yl-2,3-dihydro-isoindol-1-one] | 8 | 120 | 536 | – | –
CCN1CCN(c2cccc3c2CN([C@H](CCCN(C)S(=O)(=O)N(C)C)c2ccc(OC)c(OC)c2)C3=O)CC1 [Cpd 1, dimethylaminosulfonic acid {(4R)-4-(3,4-dimethoxy-phenyl)-4-[4-(4-ethyl-piperazin-1-yl)-1-oxo-1,3-dihydro-isoindol-2-yl]-butyl}-methyl-amide] | 7 | 55 | 204 | – | –
COc1ccc([C@@H](CCCN(C)S(=O)(=O)c2cccs2)N2Cc3c(cccc3N3CCN(C4CC4)CC3)C2=O)cc1OC [Cpd 7, thiophene-2-sulfonic acid [(4R)-4-[4-(4-cyclopropyl-piperazin-1-yl)-1-oxo-1,3-dihydro-isoindol-2-yl]-4-(3,4-dimethoxy-phenyl)-butyl]-methyl-amide] | 13 | – | – | 1170 | 59
CCN1CCN(c2cccc3c2CN([C@H](CCCNC(=O)c2cncn2C)c2ccc(OC)c(OC)c2)C3=O)CC1 [Cpd 59, 3-methyl-3H-imidazole-4-carboxylic acid {(4R)-4-(3,4-dimethoxy-phenyl)-4-[4-(4-ethyl-piperazin-1-yl)-1-oxo-1,3-dihydro-isoindol-2-yl]-butyl}-amide] | 82 | > 300 | 1260 | – | –

More lines, main results first:

IC50 [1] [nM] | Ki [3] [nM] | IC50 [2, 4] [nM] | Structure (SMILES) | IC50 [2] [nM] | Ki [3, 5] [nM]
143 | > 300 | 3660 | CCN1CCN(c2cccc3c2CN([C@H](CCCNC(N)=O)c2ccc(OC)c(OC)c2)C3=O)CC1 [Cpd 64, {(4R)-4-(3,4-dimethoxy-phenyl)-4-[4-(4-ethyl-piperazin-1-yl)-1-oxo-1,3-dihydro-isoindol-2-yl]-butyl}-urea] | – | –
93 | > 300 | 1280 | CCN1CCN(c2cccc3c2CN([C@H](CCCn2cc(C)nc2C)c2ccc(OC)c(OC)c2)C3=O)CC1 [Cpd 102, 2-[(1R)-1-(3,4-dimethoxy-phenyl)-4-(2,4-dimethyl-imidazol-1-yl)-butyl]-4-(4-ethyl-piperazin-1-yl)-2,3-dihydro-isoindol-1-one] | – | –
15 | 20 | 394 | CCN1CCN(c2cccc3c2CN([C@H](CCCNC(=O)c2ccco2)c2ccc(OC)c(OC)c2)C3=O)CC1 [Cpd 78, furan-2-carboxylic acid {(4R)-4-(3,4-dimethoxy-phenyl)-4-[4-(4-ethyl-piperazin-1-yl)-1-oxo-1,3-dihydro-isoindol-2-yl]-butyl}-amide] | – | –
21 | 18 | 311 | CCN1CCN(c2cccc3c2CN([C@H](CCCNC(=O)C2CCC2)c2ccc(OC)c(OC)c2)C3=O)CC1 [Cpd 80, cyclobutanecarboxylic acid {(4R)-4-(3,4-dimethoxy-phenyl)-4-[4-(4-ethyl-piperazin-1-yl)-1-oxo-1,3-dihydro-isoindol-2-yl]-butyl}-amide] | – | –
46 | 33 | 674 | CCN1CCN(c2cccc3c2CN([C@H](CCCNc2c(N)c(=O)c2=O)c2ccc(OC)c(OC)c2)C3=O)CC1 [Cpd 76, 3-amino-4-{(4R)-4-(3,4-dimethoxy-phenyl)-4-[4-(4-ethyl-piperazin-1-yl)-1-oxo-1,3-dihydro-isoindol-2-yl]-butylamino}-cyclobut-3-ene-1,2-dione] | – | –
5 | 19 | 145 | CCN1CCN(c2cccc3c2CN([C@H](CCCOCc2ccccc2)c2ccc(OC)c(OC)c2)C3=O)CC1 [Cpd 74, 2-[(1R)-4-benzyloxy-1-(3,4-dimethoxy-phenyl)-butyl]-4-(4-ethyl-piperazin-1-yl)-2,3-dihydro-isoindol-1-one] | – | –
457 | > 300 | 1790 | CCN1CCN(c2cccc3c2CN([C@H](CCCNS(=O)(=O)O)c2ccc(OC)c(OC)c2)C3=O)CC1 [Cpd 71, {(4R)-4-(3,4-dimethoxy-phenyl)-4-[4-(4-ethyl-piperazin-1-yl)-1-oxo-1,3-dihydro-isoindol-2-yl]-butyl}-sulfamic acid] | – | –
74 | 60 | 911 | CCN1CCN(c2cccc3c2CN([C@H](CCCNc2ccccn2)c2ccc(OC)c(OC)c2)C3=O)CC1 [Cpd 92, 2-[(1R)-1-(3,4-dimethoxy-phenyl)-4-(pyridin-2-ylamino)-butyl]-4-(4-ethyl-piperazin-1-yl)-2,3-dihydro-isoindol-1-one] | – | –
